The results in this text go back to patent US20100048488A1, “IMMUNOMODULATORY PEPTIDES” (Syntonix Pharmaceuticals, Inc., priority 2008, published 2010).

Data set [1] is described as follows: Solubility by visual inspection of lyophilized peptide in buffer. The class given is physicochemical. Particulars: for Solubility at 50 mg/mL peptide in PBS + 40 mM sodium phosphate, pH 7.4, after 30 minutes at room temperature: PBS + 40 mM sodium phosphate pH 7.4, 30 minutes room temperature; for Solubility at 100 mg/mL peptide in 100 mM sodium phosphate, pH 7.4, after 30 minutes at room temperature: 100 mM sodium phosphate pH 7.4, 30 minutes room temperature.

Data set [2] concerns the target T1, soluble human FcRn (shFcRn) (Homo sapiens, UniProt P55899).
T1 construct: made in house; host or cells: Chinese hamster ovary (CHO) cells, glutamine synthetase expression system
Briefly: Peptide-IgG competition ELISA. The settings on record: 3 nM human IgG, pH 6, 37° C. 2 hours. Type of data set: binding. As to the method: The wells were coated with 100 μl/well of 1 μg/ml biotinylated-shFcRn in Buffer A. The plate was sealed and incubated at 37° C. for 2 hours. Afterwards, the plate was washed with 200 μl/well of Buffer B (Buffer B: 100 mM MES pH 6, 150 mM NaCl, 0.5% BSA IgG-free (Jackson ImmunoResearch, West Grove, Pa.), 0.05% Tween-20). […] To allow for mixing, the plate was rocked for 2 minutes, sealed and incubated at 37° C. for 2 hours. […] The plate was covered, incubated for 30 minutes at room temperature and washed 4 times with 200 μl/well of ice-cold buffer B. SureBlue TMB substrate solution (100 μl/well, KPL, Gaithersburg, Md.) was added and the plate was allowed to incubate at room temperature until color developed, which took 5 to 10 minutes. Once color developed, 100 μl/well of TMB stop solution (KPL, Gaithersburg, Md.) was added and the absorbance was measured at 450 nm.

The nature of data set [3]: Pharmacokinetics in SD rats (serum peptide concentration by LCMS). The settings on record: rat, sc, single subcutaneous dose, peptide concentration 30 mg/mL; for level at 0.5 h: timepoint 0.5 hr; for level at 2 h: timepoint 2.00 hr; for level at 4 h: timepoint 4.00 hr; for level at 6 h: timepoint 6.00 hr; for level at 24 h: timepoint 24.00 hr; for level at 48 h: timepoint 48.00 hr. The class given is in vivo. The method, then:
SD Rats (3 per group) were treated with a single subcutaneous dose of either Peptide 283 or Peptide 310, at a peptide concentration of 30 mg/mL. Blood was collected at 0.5, 2, 4, 6, 24, 48 hours, serum was prepared and the peptide concentrations in serum were determined by LCMS.

T1 sequence (P55899 24-297 limits assumed): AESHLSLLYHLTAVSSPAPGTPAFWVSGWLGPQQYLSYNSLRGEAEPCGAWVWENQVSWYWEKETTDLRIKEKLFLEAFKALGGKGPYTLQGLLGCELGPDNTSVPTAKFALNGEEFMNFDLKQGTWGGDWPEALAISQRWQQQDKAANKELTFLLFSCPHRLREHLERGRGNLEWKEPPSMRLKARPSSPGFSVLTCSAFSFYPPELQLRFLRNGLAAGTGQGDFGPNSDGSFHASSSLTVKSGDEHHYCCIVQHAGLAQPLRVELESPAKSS
T1 sequence (P61769 21-119 partner): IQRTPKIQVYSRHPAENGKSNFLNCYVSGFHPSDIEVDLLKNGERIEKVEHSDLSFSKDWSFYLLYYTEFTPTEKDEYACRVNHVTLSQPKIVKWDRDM

Take `CC(C)C[C@H]1C(=O)N[C@@H](Cc2ccc(O)cc2)C(=O)N2CCC[C@H]2C(=O)N[C@H](C(=O)N[C@@H](CCCNC(=N)N)C(N)=O)CSSC(C)(C)[C@H](NC(=O)[C@H](Cc2ccccc2)NC(=O)[C@H](CCCNC(=N)N)NC(=O)CCC(=O)N[C@@H](CCCNC(=N)N)C(=O)N[C@@H](Cc2ccccc2)C(=O)N[C@@H]2C(=O)N[C@@H]([C@@H](C)O)C(=O)NCC(=O)N[C@@H](Cc3c[nH]cn3)C(=O)N[C@@H](Cc3ccccc3)C(=O)NCC(=O)N(C)CC(=O)N(C)[C@@H](CC(C)C)C(=O)N[C@@H](Cc3ccc(O)cc3)C(=O)N3CCC[C@H]3C(=O)N[C@H](C(=O)N[C@@H](CCCNC(=N)N)C(N)=O)CSSC2(C)C)C(=O)N[C@@H]([C@@H](C)O)C(=O)NCC(=O)N[C@@H](Cc2c[nH]cn2)C(=O)N[C@@H](Cc2ccccc2)C(=O)NCC(=O)N(C)CC(=O)N1C` [Peptide No. 311]: in data set [1], the “Solubility at 50 mg/mL peptide in PBS + 40 mM sodium phosphate, pH 7.4, after 30 minutes at room temperature” value (“Solubility at 50 mg/mL peptide” for short) is “Insoluble” and the “Solubility at 100 mg/mL peptide in 100 mM sodium phosphate, pH 7.4, after 30 minutes at room temperature” value (shortened to “Solubility at 100 mg/mL peptide”) is on record as “Insoluble”. Moreover, the IC50 in data set [2] turned out to be 1.5 ± 0.7 nM.
Consider `CC(C)C[C@H]1C(=O)N[C@@H](Cc2ccc(O)cc2)C(=O)N2CCC[C@H]2C(=O)N[C@H](C(N)=O)CSSC(C)(C)[C@H](NC(=O)[C@H](Cc2ccccc2)NC(=O)[C@H](CCCNC(=N)N)NC(=O)CCC(=O)N[C@@H](CCCNC(=N)N)C(=O)N[C@@H](Cc2ccccc2)C(=O)N[C@@H]2C(=O)N[C@@H]([C@@H](C)O)C(=O)NCC(=O)N[C@@H](Cc3c[nH]cn3)C(=O)N[C@@H](Cc3ccccc3)C(=O)NCC(=O)N(C)CC(=O)N(C)[C@@H](CC(C)C)C(=O)N[C@@H](Cc3ccc(O)cc3)C(=O)N3CCC[C@H]3C(=O)N[C@H](C(N)=O)CSSC2(C)C)C(=O)N[C@@H]([C@@H](C)O)C(=O)NCC(=O)N[C@@H](Cc2c[nH]cn2)C(=O)N[C@@H](Cc2ccccc2)C(=O)NCC(=O)N(C)CC(=O)N1C` [Peptide No. 283], for which, in data set [1], the “Solubility at 50 mg/mL peptide” value is recorded as “Insoluble” and the “Solubility at 100 mg/mL peptide” value was “Insoluble”. In addition, in data set [3], the level at 0.5 h was determined as 23 ± 14 ng/mL, the level at 2 h is 50 ± 16 ng/mL, the level at 4 h came out at 66 ± 42 ng/mL and the level at 6 h is 68 ± 34 ng/mL. In data set [3], the level at 24 h is 41 ± 6 ng/mL and the level at 48 h stood at 19 ± 4 ng/mL.
As to `CC(C)C[C@H]1C(=O)N[C@@H](Cc2ccc(O)cc2)C(=O)N2CCC[C@H]2C(=O)N[C@H](C(=O)N[C@@H](CCCCN)C(N)=O)CSSC(C)(C)[C@H](NC(=O)[C@H](Cc2ccccc2)NC(=O)[C@H](CCCNC(=N)N)NC(=O)CCC(=O)N[C@@H](CCCNC(=N)N)C(=O)N[C@@H](Cc2ccccc2)C(=O)N[C@@H]2C(=O)N[C@@H]([C@@H](C)O)C(=O)NCC(=O)N[C@@H](Cc3c[nH]cn3)C(=O)N[C@@H](Cc3ccccc3)C(=O)NCC(=O)N(C)CC(=O)N(C)[C@@H](CC(C)C)C(=O)N[C@@H](Cc3ccc(O)cc3)C(=O)N3CCC[C@H]3C(=O)N[C@H](C(=O)N[C@@H](CCCCN)C(N)=O)CSSC2(C)C)C(=O)N[C@@H]([C@@H](C)O)C(=O)NCC(=O)N[C@@H](Cc2c[nH]cn2)C(=O)N[C@@H](Cc2ccccc2)C(=O)NCC(=O)N(C)CC(=O)N1C` [Peptide No. 310], in data set [1], the “Solubility at 50 mg/mL peptide” value is recorded as “Soluble” and the “Solubility at 100 mg/mL peptide” value is “Soluble”. In data set [3], this molecule displayed a level at 0.5 h of 137 ± 60 ng/mL, a level at 2 h of 183 ± 81 ng/mL, a level at 4 h of 440 ± 156 ng/mL and a level at 6 h of 557 ± 268 ng/mL. Also, in data set [3], the level at 24 h came out at 117 ± 36 ng/mL and the level at 48 h is 37 ± 15 ng/mL. This molecule also came in with a half-maximal inhibitory concentration (IC50) in data set [2] of 1.8 ± 1.1 nM.

Usually IC50 stands for the concentration needed to halve the response being measured. Higher therefore signals lower potency.
